Laboratory results: patent US20230000813A1, “COMPOUND FOR THE TREATMENT OF BOVINE OR SWINE RESPIRATORY DISEASE” (Intervet Inc., priority 2016, published 2023)
Values after ≈ are worked out from the molar mass of the structure shown. Where two headings read alike, the source gives them in different places.

Tests used:
Assay in all cases: MIC, broth-microdilution (CLSI VET01-A4)
Format in all cases: cell-based
[1] = system: Mannheimia haemolytica MH 13065 (XB0446-6003.9, BRD field isolate)
Procedure, shortened: (§1)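 MIC read by eye as lowest compound concentration without visible growth (no turbidity), interpreted per CLSI VET01-S3. Doubling-dilution broth-microdilution trays, run according to CLSI VET01-A4.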

[2] = system: Mannheimia haemolytica MH 13093 (XB0472-6014.1, BRD field isolate)
Procedure, shortened: as §1

[3] = system: Pasteurella multocida PM 6391 (ATCC 43137, reference strain); settings: Pasteurella multocida PM 6391; for MIC: read-out: MIC PM 6391
Procedure, shortened: (§2)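 Compounds were tested in microdilution trays as twofold serial dilutions. The MIC was taken as the lowest concentration with no turbidity visible to the unaided eye, and results were interpreted per CLSI VET01-S3.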

[4] = system: Pasteurella multocida PM 10775 (080130003051, BRD field isolate); settings: Pasteurella multocida PM 10775
Procedure, shortened: as §2

[5] = system: Mannheimia haemolytica MH 6374 (ATCC 33396, reference strain); settings: Mannheimia haemolytica MH 6374; for MIC: read-out: MIC MH 6374
Procedure, shortened: as §2

[6] = system: Mannheimia haemolytica MH 6357 (M7/2, reference strain, cattle infection strain); settings: Mannheimia haemolytica MH 6357; for MIC: read-out: MIC MH 6357
Procedure, shortened: as §2

[7] = system: Pasteurella multocida PM 12080 (IV102277-0093, BRD field isolate); settings: Pasteurella multocida PM 12080; for MIC: read-out: MIC PM 12080
Procedure, shortened: as §2

[8] = system: Mannheimia haemolytica MH 12587 (1071, BRD field isolate, macrolide-resistance: erm+, E+); settings: for MIC MH 12587: Mannheimia haemolytica MH 12587, macrolide-resistant
Procedure, shortened: as §2

[9] = system: Mannheimia haemolytica MH 10720 (154, BRD field isolate); settings: Mannheimia haemolytica MH 10720
Procedure, shortened: as §2

[10] = system: Pasteurella multocida PM 6267 (P 2225 (L386), reference strain, mouse infection strain); settings: Pasteurella multocida PM 6267
Procedure, shortened: as §2

SMILES	MIC [1] [µM]	MIC [2] [µM]	MIC PM 6391 [3]	MIC PM 10775 [4]	MIC [5] [µM]	MIC [6] [µM]	MIC PM 12080 [7]	MIC MH 12587 [8] [µM]	MIC MH 10720 [9]	MIC PM 6267 [10]	further results
CC(C)([C@@H](NC(=O)c1ccc(C#Cc2ccc(CNCc3nccs3)cc2)cc1)C(=O)NO)S(C)(=O)=O [C. 620]	0.2 (≈ 0.108 µg/mL)	0.2 (≈ 0.108 µg/mL)	<=0.1 μM	<=0.1 μM	0.2 (≈ 0.108 µg/mL)	0.2 (≈ 0.108 µg/mL)	<=0.1 μM	0.4 (≈ 0.216 µg/mL)	<=0.1 μM	<=0.1 μM	
C[C@@H](O)[C@H](NC(=O)c1ccc(C#Cc2ccc(CNCc3ccccc3)cc2)cc1)C(=O)NO [Compound 2]	1 (≈ 0.458 µg/mL)	0.8 (≈ 0.366 µg/mL)	<=0.1 μM	<=0.1 μM	0.2 (≈ 0.0915 µg/mL)	0.2 (≈ 0.0915 µg/mL)	<=0.1 μM	0.8 (≈ 0.366 µg/mL)	<=0.1 μM	<=0.1 μM	
CC(C)C(NC(=O)c1ccc(C#Cc2ccc(CNC3CC3)cc2)cc1)C(=O)NO (centres unmarked) [Compound 144]		0.2 (≈ 0.0811 µg/mL)		<=0.1 μM	0.195 (≈ 0.0791 µg/mL)	1.563 (≈ 0.634 µg/mL)	<=0.1 μM	0.2 (≈ 0.0811 µg/mL)	<=0.1 μM	<=0.1 μM	MIC MH 13065 [1]: <=0.1 μM; MIC [3]: 0.098 µM (≈ 0.0397 µg/mL)
CCC(C)C(NC(=O)c1ccc(C#Cc2ccc(CNC3CC3)cc2)cc1)C(=O)NO (centres unmarked) [Compound 164]	0.4 (≈ 0.168 µg/mL)	0.4 (≈ 0.168 µg/mL)		<=0.1 μM	0.781 (≈ 0.328 µg/mL)	0.391 (≈ 0.164 µg/mL)		0.8 (≈ 0.336 µg/mL)	<=0.1 μM	<=0.1 μM	MIC [3]: 0.391 µM (≈ 0.164 µg/mL); MIC [7]: 0.2 µM (≈ 0.0839 µg/mL)
C[C@@H](O)[C@H](NC(=O)c1ccc(C#Cc2ccc(CN3CCc4ccccc4C3)s2)cc1)C(=O)NO [Compound 194]	0.4 (≈ 0.196 µg/mL)	0.8 (≈ 0.392 µg/mL)	<=0.1 μM	<=0.1 μM	0.8 (≈ 0.392 µg/mL)	0.2 (≈ 0.0979 µg/mL)	<=0.1 μM	0.8 (≈ 0.392 µg/mL)	<=0.1 μM	<=0.1 μM	
C[C@@H](O)[C@H](NC(=O)c1ccc(C#Cc2ccc(CNCc3ccccc3)s2)cc1)C(=O)NO [Compound 195]	0.4 (≈ 0.185 µg/mL)	0.4 (≈ 0.185 µg/mL)	<=0.1 μM	<=0.1 μM	0.2 (≈ 0.0927 µg/mL)	0.2 (≈ 0.0927 µg/mL)	<=0.1 μM	0.8 (≈ 0.371 µg/mL)	<=0.1 μM	<=0.1 μM	
C[C@@H](O)[C@H](NC(=O)c1ccc(C#Cc2ccc(CN(C)Cc3ccccc3)s2)cc1)C(=O)NO [Compound 196]	0.8 (≈ 0.382 µg/mL)	0.8 (≈ 0.382 µg/mL)	<=0.1 μM	<=0.1 μM	0.8 (≈ 0.382 µg/mL)	0.4 (≈ 0.191 µg/mL)	<=0.1 μM	1.6 (≈ 0.764 µg/mL)	<=0.1 μM	<=0.1 μM	
C[C@@H](O)[C@H](NC(=O)c1ccc(C#Cc2ccc(CN3CCc4ccccc4C3)o2)cc1)C(=O)NO [Compound 203]	0.8 (≈ 0.379 µg/mL)	0.8 (≈ 0.379 µg/mL)		<=0.1 μM	0.8 (≈ 0.379 µg/mL)	0.8 (≈ 0.379 µg/mL)		1.6 (≈ 0.758 µg/mL)	<=0.1 μM	<=0.1 μM	MIC [3]: 0.4 µM (≈ 0.189 µg/mL); MIC [7]: 0.2 µM (≈ 0.0947 µg/mL)
C[C@@H](O)[C@H](NC(=O)c1ccc(C#Cc2ccc(CN(C)Cc3ccccc3)o2)cc1)C(=O)NO [Compound 205]	0.8 (≈ 0.369 µg/mL)	1.6 (≈ 0.738 µg/mL)		<=0.1 μM	0.8 (≈ 0.369 µg/mL)	0.8 (≈ 0.369 µg/mL)		1.6 (≈ 0.738 µg/mL)	<=0.1 μM	<=0.1 μM	MIC [3]: 0.4 µM (≈ 0.185 µg/mL); MIC [7]: 0.2 µM (≈ 0.0923 µg/mL)
C[C@@H](O)[C@H](NC(=O)c1ccc(C#Cc2ccc([N+](=O)[O-])cc2)cc1)C(=O)NO [Compound 243, N-[(1S,2R)-2-hydroxy-1-(hydroxycarbamoyl)propyI]-4-[2-(4-nitrophenyl)ethynyl]benzamide]	0.4 (≈ 0.153 µg/mL)	1.6 (≈ 0.613 µg/mL)				0.2 (≈ 0.0767 µg/mL)					MIC ([3]; ATCC43137): 0.2 µM (≈ 0.0767 µg/mL); MIC ([4]; read-out: MIC PM 10775): ≤ 0.1 µM; MIC ([5]; ATCC33396): 0.4 µM (≈ 0.153 µg/mL); MIC [7]: 0.2 µM (≈ 0.0767 µg/mL); MIC ([8]; Mannheimia haemolytica, read-out: MIC MH 12587): 0.8 µM (≈ 0.307 µg/mL); MIC ([9]; read-out: MIC MH 10720): ≤ 0.1 µM; MIC ([10]; read-out: MIC PM 6267): ≤ 0.1 µM
C[C@@H](O)[C@H](NC(=O)c1ccc(C#Cc2ccc(CNCc3cccnc3)cc2)cc1)C(=O)NO [Compound 256]	0.8 (≈ 0.367 µg/mL)	0.8 (≈ 0.367 µg/mL)	<=0.1 μM	<=0.1 μM	0.4 (≈ 0.183 µg/mL)	0.4 (≈ 0.183 µg/mL)	<=0.1 μM	1.6 (≈ 0.734 µg/mL)	<=0.1 μM	<=0.1 μM	
C[C@@H](O)[C@H](NC(=O)c1ccc(C#Cc2ccc(CNCc3ccnc(Cl)c3)cc2)cc1)C(=O)NO [Compound 257]	0.4 (≈ 0.197 µg/mL)	0.4 (≈ 0.197 µg/mL)	<=0.1 μM	<=0.1 μM	0.2 (≈ 0.0986 µg/mL)	0.2 (≈ 0.0986 µg/mL)	<=0.1 μM	0.8 (≈ 0.394 µg/mL)	<=0.1 μM	<=0.1 μM	
C[C@@H](O)[C@H](NC(=O)c1ccc(C#Cc2ccc(CNCc3cccs3)cc2)cc1)C(=O)NO [Compound 260]	0.4 (≈ 0.185 µg/mL)	0.4 (≈ 0.185 µg/mL)	<=0.1 μM	<=0.1 μM			<=0.1 μM	0.4 (≈ 0.185 µg/mL)	<=0.1 μM	<=0.1 μM	MIC MH 6374 [5]: <=0.1 μM; MIC MH 6357 [6]: <=0.1 μM
Cc1ccc(CNCc2ccc(C#Cc3ccc(C(=O)N[C@H](C(=O)NO)[C@@H](C)O)cc3)cc2)cc1 [Compound 261]	0.4 (≈ 0.189 µg/mL)	0.8 (≈ 0.377 µg/mL)	<=0.1 μM	<=0.1 μM	0.2 (≈ 0.0943 µg/mL)	0.2 (≈ 0.0943 µg/mL)	<=0.1 μM	0.8 (≈ 0.377 µg/mL)	<=0.1 μM	<=0.1 μM	
